Test results taken from patent US7070965B1, “Small molecule anticancer compounds and related production process” (priority 1998, dated 2006).
Entries after “also recorded” stand apart in the source; their conditions may differ.

Columns and labels:
[1] = tested on: normal human peripheral blood lymphocytes (PBL); assay: Cytotoxicity on normal cells, viability assessment; type: cell-based; settings: at concentrations lethal to tumor cells
Procedure: PBLs, K-562 and SNU-1 cells in suspension culture were seeded in 96-well microplates at a density of 5×10^4 cells/well for K-562 and SNU-1, and 1×10^5 cells/well for PBLs. iso-C15 were diluted with medium to provide different concentrations (0, 1.5, 3.0, 6.0, 15.0, 30.0, and 60.0 μg/ml). Both untreated and solvent (NaOH and Tween 80) treated cells served as controls. After incubation for 48 hours at 37° C., cells were collected directly from the wells for viability assessment.
The ID50, ID75 and ID90 were determined in duplicate in every set of experiments, and each experiment was repeated three times under identical conditions. ID50, ID75 and ID90 were defined as the concentration of iso-C15 required to kill 50, 75 or 90%, respectively, of cells (compared with that in untreated cells) and computed using CalcuSyn for Windows software (Biosoft, Cambridge UK) based on Median Effect method by Dr. T. C. Chou.

[2] = tested on: SNU-1 cells; assay: In situ cell death detection (TUNEL, fluorescence microscopy); type: cell-based, human; settings: 60 μg/ml, 8 hours
Source text: In Situ Cell Death Detection Kit, POD (Mannheim Boehringer GmbH) was used to detect the individual apoptotic cells. Cleavage of genomic DNA during apoptosis may yield double-stranded, low molecular weight DNA fragments as well as single strand breaks in high molecular weight DNA. Those DNA strand breaks can be identified by labeling free 3′-OH termini with modified nucleotides in an enzymatic reaction. In this kit terminal deoxynucleotidyl transferase (TdT) is used to label free 3′-OH ends in genomic DNA with fluorescein-dUTP. The incorporated fluorescein is visualized under fluorescence microscope directly. The incorporated fluorescein can also bind to anti-fluorescein antibody POD and be detected by substrate reaction. Stained cells can be analyzed under light microscope.
Four human tumor cell lines, K-562 human leukemia, SNU-1 human gastric carcinoma cell lines, MCF-7 human breast adenocarcinoma and H1688 human small cell lung carcinoma cell lines, as well as Human PBLs were treated with iso-C15 (60 μg/ml).
SNU-1 cells treated with iso-C15 for 8 hours were added with TUNEL-reaction mixture and incubated 60 min at 37° C. After washing with PBS for three times, cell morphology was analyzed directly under fluorescence microscopy.

[3] = tested on: human prostate carcinoma DU145; assay: Orthotopic nude mice model of human prostate carcinoma DU145; type: in vivo; settings: for Mean tumor weight / TIR (tumor inhibition rate): oral once a day
Procedure: 13-methyltetradecanoic acid (iso-C15) was chemically synthesized in the inventor's laboratory, as described in Example 5, infra, (purity of 99.8%) was prepared by dissolving in NaOH solution and then in 0.35% Tween 80 with pH7.5.
Total of 24 male athymic BALB/c nude mice between 4 and 5 weeks of age were bred and maintained in specific pathogen free condition.
Human prostate carcinoma DU145 tumor was implanted and maintained subcutaneously in the flank of athymic nude mice. Prior to orthotopic implantation, the tumor was harvested in log phase. The peripheral tumor tissue was collected and minced to small pieces of one cubic millimeter each.
The mice were anesthetized for surgical orthotopic implantation. A small incision was made along the midline of the lower abdomen. After proper exposure of the bladder and prostate, the capsule of the prostate was opened and three pieces of DU145 tumor fragments were inserted into the capsule. The capsule was then closed using 8-0 suture, and the abdomen was closed using a 6-0 surgical suture.
The mice bearing orthotopic DU145 were randomly divided into control and test groups of eight mice each at the second day after tumor implantation. The iso-C15 prepared above at doses 35 and 70 mg/kg and PBS were administered by gavage once a day in low dose and high dose test groups and control group, respectively, for […].
(§1) All the mice were sacrificed by CO2 inhalation at day-40 after the start of treatment. The weights of primary tumors and bodies were measured. Tissue samples of the primary tumors were processed through standard procedures of hematoxylin and eosin staining for microscopic examination.
(§2) The tumor inhibition rates (TIR) were determined by comparing the mean tumor weight of the test groups (T) with that of the control group (C) and expressed as a (C)−T)/C percentage, and were analyzed by Student's test for statistical significance.

[4] = Human clinical studies on the safety of iso-C15; type: in vivo
Procedure: Chemically synthesized iso-C15 of 99.8% purity were prepared in 0.20 g capsules. Six healthy adult volunteers (4 male, 2 female) of average age 35.6 were divided into three groups, and orally received iso-C15 capsules for thirty days. Low dose group: one case, 0.6 g daily; middle dose group: two cases, 1.2 g daily; high dose group: three cases, 1.8 g daily. The examinations were carried out before, during and after experiment, including physical examinations, blood and urine routine examinations, function of heart, liver and kidney, X-ray radioscopy of lung and subjective symptom.

[5] = tested on: human hepatocellular carcinoma LCI-D35; assay: Orthotopic nude mice model of human hepatocellular carcinoma LCI-D35; type: in vivo, athymic BALB/c nude mice
Procedure: 13-methyltetradecanoic acid (iso-C15) was chemically synthesized in the inventor's laboratory, as described in Example 5, infra, (purity of 99.8%), was prepared by dissolving in NaOH solution and then in 0.35% Tween 80 with pH7.5.
Total of 16 male and female athymic BALB/c nude mice between 4 and 5 weeks of age were bred and maintained in specific pathogen free condition.
Human hepatocellular carcinoma LCI-D35 was originally obtained from the primary tumor of a patient. The tumor was implanted and maintained subcutaneously in athymic nude mice. Prior to orthotopic implantation, the tumor was harvested in log phase. The peripheral tumor tissue was collected and minced to small pieces of one cubic millimeter each.
The mice were anesthetized for surgical orthotopic implantation. A small incision was made along the midline of the upper abdomen. The left lobe of the liver was exposed and a small incision was made on the liver surface. Two of the tumor fragments above were sutured into the incision using 8-0 suture. The abdomen was then closed using a 6-0 surgical suture.
The mice bearing orthotopic LCI-D35 were randomly divided into control and test groups of eight mice each at the second day after tumor implantation. The iso-C15 prepared above at dose 70 mg/kg and PBS were administered by gavage once a day in the test and control group, respectively, for 40 days.
as §1, §2

[6] = 0.6–1.8 g daily oral, thirty days
[7] = after test, 0.6–1.8 g daily oral, thirty days

CC(C)CCCCCCCCCCCC(=O)O [iso-C15, 13-methyltetradecanoic acid]
toxicity against normal human peripheral blood lymphocytes [1]: not toxic against normal human peripheral blood lymphocytes
apoptotic cells, TUNEL fluorescence [2]: Several yellow fluorescent spots of apoptotic cells were noted
Mean tumor weight ([3]; 35 mg/kg): 493.25 mg
TIR (tumor inhibition rate) ([3]; 35 mg/kg): 54.8%
Mean tumor weight ([3]; 70 mg/kg): 168.00 mg
TIR (tumor inhibition rate) ([3]; 70 mg/kg): 84.6%
signs of toxicity (body weight curve, histology slides) ([3]; 35 and 70 mg/kg oral): no signs of toxicity
mice in which the implanted tumor did not grow ([3]; high dose, 70 mg/kg, eight mice per group): four
toxicity / side effects in volunteers ([4]; 0.6 g–1.8 g daily for one month, oral): without any side effects; also recorded: without any toxicity effects
heart and lung, electrocardiogram (EKG) and X-ray radioscopy [4, 6]: No abnormality
urine routine [4, 6]: no abnormality
ALT [4, 7]: 15.00 ± 10.33 μ/L
BUN [4, 7]: 6.47 ± 1.72 mmol/L
GRAN [4, 7]: 3.80 ± 0.89 × 10^9
HB [4, 7]: 128 ± 16.9 g/L
PLT [4, 7]: 232.0 ± 52.1 × 10^9/L
RBC [4, 7]: 4.62 ± 0.69 × 10^12/L
WBC [4, 7]: 7.50 ± 0.71 × 10^9/L
ALT ([4]; before test, X ± SD, 6 cases): 15.17 ± 8.70 μ/L
BUN ([4]; before test, X ± SD, 6 cases): 6.69 ± 2.14 mmol/L
GRAN ([4]; before test, X ± SD, 6 cases): 3.20 ± 0.59 × 10^9
HB ([4]; before test, X ± SD, 6 cases): 122 ± 10.4 g/L
PLT ([4]; before test, X ± SD, 6 cases): 203.0 ± 33.3 × 10^9/L
RBC ([4]; before test, X ± SD, 6 cases): 4.64 ± 0.40 × 10^12/L
WBC ([4]; before test, X ± SD, 6 cases): 5.80 ± 0.95 × 10^9/L
signs of toxicity (body weight curve, histology slides) ([5]; 70 mg/kg oral): no signs of toxicity
TIR (tumor inhibition rate) ([5]; 70 mg/kg oral, 40 days): 64.9%
tumor weight mean ± SD ([5]; 70 mg/kg oral, 40 days): 0.071 ± 0.052 g
mice in which the implanted tumor did not grow ([5]; 70 mg/kg, eight mice per group): two
